Key:
NCI-H1975 [1] = assay: Induction of cell cycle arrest in human NCI-H1975 cells assessed as accumulation at G2/M phase incubated for 48 hrs in presence of SAHA by PI staining based flow cytometry relative to control; format: functional
NCI-H2228 [2] = assay: Antiproliferative activity against human NCI-H2228 cells incubated for 24 hrs by MTT assay; format: functional, cell-based; settings: NCI-H2228, 24 h
MDA-MB-231 [3] = assay: cells; format: functional, cell-based; settings: Homo sapiens, MDA-MB-231, 24 h
Huh-7 [4] = assay: Antiproliferative activity against human Huh-7 cells incubated for 24 hrs in presence of SAHA by MTT assay; format: functional, cell-based; settings: Huh-7, 24 h
[5] = Toxicity BALB/c nude mouse xenografted with human NCI-H1975 cells assessed as body weight loss at 10 mg/kg, ip bid in presence of SAHA treated for 21 days (Rvb > 11.5 %); format: organism-based; settings: in vivo, 504 h, time 21 day
PC-3 = assay: Antiproliferative activity against human PC-3 cells incubated for 24 hrs in presence of SAHA by MTT assay; format: functional, cell-based; settings: PC-3, 24 h
NCI-H2228 [6] = assay: Antiproliferative activity against human NCI-H2228 cells incubated for 24 hrs in presence of SAHA by MTT assay; format: functional, cell-based; settings: NCI-H2228, 24 h
HCT-116 = assay: cells; settings: Homo sapiens, HCT-116, 24 h
Description: Antiproliferative activity against human HCT-116 cells incubated for 24 hrs in presence of SAHA by MTT assay

MDA-MB-231 [7] = assay: cells; settings: Homo sapiens, MDA-MB-231, 24 h
Description: Antiproliferative activity against human MDA-MB-231 cells incubated for 24 hrs in presence of SAHA by MTT assay

NCI-H1975 [8] = assay: Inhibition of colony formation in human NCI-H1975 cells incubated for 24 hrs followed by re-culturing in fresh medium without compound measured after 14 days in presence of SAHA by crystal violet staining based analysis relative to control; format: functional
NCI-H1975 [9] = assay: Antitumor activity against human NCI-H1975 cells xenografted in BALB/c nude mouse at 10 mg/kg, ip bid treated for 21 days in presence of SAHA relative to control; format: functional; settings: time 21 day
Huh-7 [10] = assay: Antiproliferative activity against human Huh-7 cells incubated for 24 hrs by MTT assay; format: functional, cell-based; settings: Huh-7, 24 h
MCF7 = assay: cells; settings: Homo sapiens, MCF7, 24 h
Description: Antiproliferative activity against human MCF7 cells incubated for 24 hrs in presence of SAHA by MTT assay

NCI-H1975 [11] = assay: Inhibition of cell migration in human NCI-H1975 cells measured after 24 to 48 hrs in presence of SAHA by wound healing assay relative to control; format: functional; settings: time 24-48 hrs
NCI-H1975 [12] = assay: Induction of apoptosis in human NCI-H1975 cells incubated for 24 hrs in presence of SAHA by Annexin V-FITC/PI staining based flow cytometry relative to control; format: functional
NCI-H1975 [13] = assay: Induction of cell cycle arrest in human NCI-H1975 cells assessed as accumulation at G2/M phase at 4 uM incubated for 48 hrs by PI staining based flow cytometry relative to control; format: functional
NCI-H1975 [14] = assay: Induction of apoptosis in human NCI-H1975 cells at 4 uM incubated for 24 hrs in presence of Irinotecan by Annexin V-FITC/PI staining based flow cytometry relative to control; format: functional
NCI-H1975 [15] = assay: Induction of DNA damage in human NCI-H1975 cells assessed as DNA tail formation at 8 uM incubated for 48 hrs by Comet assay relative to control; format: functional
[16] = Toxicity BALB/c nude mouse xenografted with human NCI-H1975 cells assessed as body weight loss at 100 mg/kg, po qd in presence of Irinotecan treated for 21 days (Rvb > 11.5 %); format: organism-based; settings: in vivo, 504 h, time 21 day
NCI-H1975 [17] = assay: Induction of cell cycle arrest in human NCI-H1975 cells assessed as accumulation at G2/M phase at 4 uM incubated for 48 hrs in presence of Irinotecan by PI staining based flow cytometry relative to control; format: functional
NCI-H1975 [18] = assay: Induction of apoptosis in human NCI-H1975 cells at 4 uM incubated for 24 hrs by Annexin V-FITC/PI staining based flow cytometry relative to control; format: functional

CCc1c2c(nc3ccc(OC(=O)N4CCC(N5CCCCC5)CC4)cc13)-c1cc3c(c(=O)n1C2)COC(=O)[C@]3(O)CC [IRINOTECAN]
Activity (NCI-H1975 [1]): 35%
IC50 (NCI-H2228 [2]): 3480 nM
IC50 (MDA-MB-231 [3]): > 8000 nM
IC50 (Huh-7 [4]): 1790 nM
Activity [5]: 22.4%
IC50 (PC-3): 1240 nM
IC50 (NCI-H2228 [6]): 1450 nM
IC50 (HCT-116): 730 nM
IC50 (MDA-MB-231 [7]): 1340 nM
inhibition (INH) (NCI-H1975 [8]): 61.8%
inhibition in vivo at 10 mg/kg (NCI-H1975 [9]; Mus musculus, NCI-H1975, 504 h, read-out: TGI): 65.8%
T/C (NCI-H1975 [9]): 39.1%
IC50 (Huh-7 [10]): > 8000 nM
IC50 (MCF7): 970 nM
inhibition (INH) (NCI-H1975 [11]): 40.7%
Activity (NCI-H1975 [12]): 56.1%

O=C(CCCCCCC(=O)Nc1ccccc1)NO [VORINOSTAT]
Activity (NCI-H1975 [13]): 30.4%
Activity (NCI-H1975 [14]): 56.1%
Activity (NCI-H1975 [15]): 19.4%
Activity [16]: 22.4%
Activity (NCI-H1975 [17]): 35%
Activity (NCI-H1975 [18]): 46%

Reference: ChEMBL document CHEMBL6096629, “Indolo[3,2-c]isoquinoline Hydroxamic Acid Derivatives as Novel Orally Topoisomerase-Histone Deacetylase Dual Inhibitors for NSCLC Therapy” (J Med Chem, 2025)
